Experimental findings from BindingDB's records for doi:10.1074/jbc.M703586200 (University of Minnesota, 2007) are described below.

The target of assay [1] is T1, Tissue factor (Homo sapiens, UniProt P13726). In words: Inhibition of TNF-alpha-induced tissue factor activity in HUVEC preincubated for 4 hrs assessed after 4 hrs of TNFalpha challenge by one stage clotting assay.
Assay [2] has as its target T1, Tissue factor. In words: Inhibition of LPS-induced tissue factor activity in HUVEC preincubated for 4 hrs assessed after 4 hrs of LPS challenge by one stage clotting assay.

T1 sequence (P13726 whole entry): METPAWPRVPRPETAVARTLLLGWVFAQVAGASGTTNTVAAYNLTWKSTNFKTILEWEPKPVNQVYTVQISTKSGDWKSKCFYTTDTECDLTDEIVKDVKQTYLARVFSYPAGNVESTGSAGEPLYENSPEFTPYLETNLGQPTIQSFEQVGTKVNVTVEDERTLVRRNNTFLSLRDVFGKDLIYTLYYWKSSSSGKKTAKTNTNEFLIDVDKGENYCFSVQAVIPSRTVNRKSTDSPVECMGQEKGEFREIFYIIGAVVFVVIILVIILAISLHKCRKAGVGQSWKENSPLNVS

Regarding `CC(=CC(C)C=CC(=O)NO)C(=O)c1ccc(N(C)C)cc1` (centres undefined), the IC50 against Tissue factor [1] stood at 0.03 µM.

`CCCC(=O)O`: the half-maximal inhibitory concentration (IC50) against Tissue factor [2] was determined as 1000 µM; on Tissue factor [1], 2000 µM. `CCC(=O)CCCCC[C@@H]1NC(=O)[C@H]2CCCCN2C(=O)[C@H]([C@@H](C)CC)NC(=O)[C@H](Cc2cn(OC)c3ccccc23)NC1=O` [(6S,9S,12S,14aR)-6-((S)-sec-Butyl)-9-(1-methoxy-1H-indol-3-ylmethyl)-12-(6-oxo-octyl)-decahydro-4a,7,10,13-tetraaza-benzocyclododecene-5,8,11,14-tetraone]: the half-inhibitory concentration (IC50) is 0.15 µM against Tissue factor [2] and 0.2 µM against Tissue factor [1]. As to `CCCC(CCC)C(=O)O` [Valproinsaeure], the concentration for half-maximal inhibition (IC50) at Tissue factor [2] is 1500 µM; on Tissue factor [1], 2000 µM. As for `Nc1ccccc1NC(=O)c1ccc(CNC(=O)OCc2cccnc2)cc1` [benzamide-type inhibitor, 3], the 50% inhibitory concentration (IC50) is 6 µM on Tissue factor [2] and 10 µM on Tissue factor [1].
